Test results published in patent US10442813B2, “Polymorphs of rucaparib camsylate and methods of making same” (RK Pharma Solutions LLC, priority 2018, dated 2019).
Where a name gives a salt, the structure may show the parent alone. Read-outs that look alike come from different tables or passages of the source.

Assay: Solubility of rucaparib camsylate Form beta in USP standard buffers adjusted to different pHs, 37° C.
Format: physicochemical
Method: The solubility of rucaparib camsylate Form beta was investigated in USP standard buffers adjusted to different pHs. For pH 1.2, the buffer solution included 3.73 g of potassium chloride dissolved in 100 ml of water which was mixed with […] of 0.2 M hydrochloric acid. Water was added to bring the volume to 1000 ml. For pH 4.5, the buffer solution included 2.99 g of sodium acetate dissolved in 100 ml of water which was mixed with 14 ml of 2 N acetic acid. Water was added to bring the volume to 1000 ml. For pH 6.0, the buffer preparation included 6.80 g of potassium phosphate dissolved in 100 ml of water which was mixed with 28 ml of 0.2 M sodium hydroxide. Water was added to bring the volume to 1000 ml. For pH 6.8, the buffer preparation included 6.80 g of potassium phosphate dissolved in 100 ml of water, which was mixed with 112 ml of 0.2 M sodium hydroxide. Water was added to volume of 1000 ml. For pH 8.0, the buffer preparation included 3.09 of boric acid and 3.73 g of potassium chloride dissolved in 100 ml of water, which was mixed with 19.5 ml of 0.2 sodium hydroxide. Water was added to bring volume to 1000 ml.

In the case of `CNCc1ccc(-c2[nH]c3cc(F)cc4c3c2CCNC4=O)cc1` [Rucaparib Form beta, 8-fluoro-2-{4-[(methylamino)methyl]phenyl}-1,3,4,5-tetrahydro-6H-azepino[5,4,3-cd]indol-6-one ((1S,4R)-7,7dimethyl-2-oxobicyclo[2.2.1]hept-1-yl)methanesulfonic acid salt], the solubility (USP buffer pH 8.0, 37° C.) is reported as “Very slightly soluble”, the solubility (USP buffer pH 8.0, 37° C., listed as rucaparib camsylate Form beta) is reported as “slightly soluble” and the solubility (USP standard buffer pH 1.2, simulated gastric fluid, thermodynamic from solid, USP buffer pH 1.2, 37° C., read-out: Solubility) is reported as less than 100 µg/mL. The solubility (USP standard buffer pH 4.5, aqueous buffer, thermodynamic from solid, USP buffer pH 4.5, 37° C., read-out: Solubility) was less than 100 µg/mL, the solubility (USP standard buffer pH 6.0, aqueous buffer, thermodynamic from solid, USP buffer pH 6.0, 37° C., read-out: Solubility) was less than 100 µg/mL and the solubility (USP standard buffer pH 6.8, aqueous buffer, thermodynamic from solid, USP buffer pH 6.8, 37° C., read-out: Solubility) was less than 100 µg/mL. For the same compound, the solubility (most pH values (all tested except pH 8)) was “practically insoluble” and the solubility (thermodynamic from solid, Water, 37° C., read-out: Solubility) was less than 100 µg/mL.
